# US20250352539A1, “COMBINATION THERAPY FOR TREATING CANCER” (AstraZeneca AB, priority 2022, published 2025)
# Where “and” joins values, the source holds several entries; their conditions need not be identical. Equal values may be shown once. Read-outs that look alike come from different tables or passages of the source.
# Experiments:
# Assay in all cases: 10-day Cell Titre Glo combination screen
# Format in all cases: cell-based
# NCI-H1666 = settings: Homo sapiens; NCI-H1666 lung; monotherapy; read-out: mono AC50
# Excerpt: (§1) The Highest Single Agent (HSA) model is used to determine a combination's synergy score (and is based simply on the intuition that if a combination's effect exceeds the effect level of each of its constituents, there must be some combination interaction). Mathematically, the HSA model describes simple superposition of the single agent curves:
# (§2) where CX,Y are the concentrations of the X and Y compound, and IX and IY are inhibitions of the single agents at CX,Y. It is also useful to calculate a volume score (HSA Volume) between the data and the HSA surface to characterise the overall strength of combination effects. Empirically derived combination matrices are compared to their respective HSA additivity models constructed from experimentally collected single agent dose response curves. Summation of this excess additivity across the dose response matrix is referred to HSA Volume.
# (§3) Potency shifting can also be scored using combination index (CI). For a chosen iso-effect level (ICut), CI is calculated as: […]
# (§4) where (CX/ECX) for a particular data point is the ratio of the X compound's measured concentration to its effective concentration at the chosen effect level. The CI is a rough estimate of how much drug was needed in combination relative to the single agent doses required to achieve the chosen effect level. CI values in the range of 0.5-0.7 are typical for in vitro measurements of current clinical combinations. The CI error (σCI) is calculated using standard error propagation through the CI calculation based on the isobologram errors.
# (§5) This combination screen was a 10-day assay using Cell Titre Glo as the readout for viability.
# (§6) The assay was performed in 384 well plates, with 1 cell line and 4 drug-drug combinations per plate dosed in a 6×6 matrix. A day zero reading was measured to determine growth inhibition. GenedataScreener was used to input the raw values for every well, and the software was programmed to normalise the values to the day zero and DMSO control values.
# (§7) The CellTiter-Glo® Luminescent Cell Viability Assay is a homogeneous method to determine the number of viable cells in culture based on quantitation of the ATP present, which signals the presence of metabolically active cells. It relies on the properties of a proprietary thermostable luciferase (Ultra-Glo™ Recombinant Luciferase), which generates a stable “glow-type” luminescent signal and improves performance across a wide range of assay conditions.
# (§8) The following information was reported: Synergy scores (HSA); combination index values; AC50 (half-maximal activity concentration) monotherapy values.
# NCI-H1299 = settings: Homo sapiens; NCI-H1299 lung; monotherapy; read-out: mono AC50
# Excerpt: as §1, §2, §3, §4, §5, §6, §7, §8
# DMS53 = settings: Homo sapiens, DMS-53; DMS53 lung; monotherapy; read-out: mono AC50
# Excerpt: as §1, §2, §3, §4, §5, §6, §7, §8
# HCC1569 = settings: Homo sapiens; HCC1569 breast; monotherapy; read-out: mono AC50
# Excerpt: as §1, §2, §3, §4, §5, §6, §7, §8
# T47D = settings: Homo sapiens; T47D breast; monotherapy; read-out: mono AC50
# Excerpt: as §1, §2, §3, §4, §5, §6, §7, §8
# MDA-MB-134IV = MDA-MB-134IV breast; monotherapy; read-out: mono AC50
# Excerpt: as §1, §2, §3, §4, §5, §6, §7, §8
# PC-9 = settings: Homo sapiens; PC-9 lung; monotherapy; read-out: mono AC50
# Excerpt: as §1, §2, §3, §4, §5, §6, §7, §8
# NCI-H838 = settings: Homo sapiens; NCI-H838 lung; monotherapy; read-out: mono AC50
# Excerpt: as §1, §2, §3, §4, §5, §6, §7, §8
# NCI-H2085 = NCI-H2085 lung; monotherapy; read-out: mono AC50
# Excerpt: as §1, §2, §3, §4, §5, §6, §7, §8
# BT-20 = settings: Homo sapiens; BT-20 breast; monotherapy; read-out: mono AC50
# Excerpt: as §1, §2, §3, §4, §5, §6, §7, §8
# NCI-H2291 = settings: Homo sapiens; NCI-H2291 lung; monotherapy; read-out: mono AC50
# Excerpt: as §1, §2, §3, §4, §5, §6, §7, §8
# BT474C1 = BT474C1 breast; monotherapy; read-out: mono AC50
# Excerpt: as §1, §2, §3, §4, §5, §6, §7, §8
# MDA-MB-157 = settings: Homo sapiens; MDA-MB-157 breast; monotherapy; read-out: mono AC50
# Excerpt: as §1, §2, §3, §4, §5, §6, §7, §8
# A549 = settings: Homo sapiens; A549 lung; monotherapy; read-out: mono AC50
# Excerpt: as §1, §2, §3, §4, §5, §6, §7, §8
# MCF7 = settings: Homo sapiens; MCF7 breast; monotherapy; read-out: mono AC50
# Excerpt: as §1, §2, §3, §4, §5, §6, §7, §8
# SUM52PE = SUM52PE breast; monotherapy; read-out: mono AC50
# Excerpt: as §1, §2, §3, §4, §5, §6, §7, §8
# HCC1937 = settings: Homo sapiens; HCC1937 breast; monotherapy; read-out: mono AC50
# Excerpt: as §1, §2, §3, §4, §5, §6, §7, §8
# NCI-H1993 = settings: Homo sapiens; NCI-H1993 lung; monotherapy; read-out: mono AC50
# Excerpt: as §1, §2, §3, §4, §5, §6, §7, §8
# MDA-MB-231 = settings: Homo sapiens; MDA-MB-231 breast; monotherapy; read-out: mono AC50
# Excerpt: as §1, §2, §3, §4, §5, §6, §7, §8
# Calu-1 = settings: monotherapy, read-out: mono AC50
# Excerpt: as §1, §2, §3, §4, §5, §6, §7, §8
# MDA-MB-468 = settings: Homo sapiens; MDA-MB-468 breast; monotherapy; read-out: mono AC50
# Excerpt: as §1, §2, §3, §4, §5, §6, §7, §8
# CAL-120 = settings: Homo sapiens; CAL-120 breast; monotherapy; read-out: mono AC50
# Excerpt: as §1, §2, §3, §4, §5, §6, §7, §8
# HCC1143 = settings: Homo sapiens; HCC1143 breast; monotherapy; read-out: mono AC50
# Excerpt: as §1, §2, §3, §4, §5, §6, §7, §8
# SW1573 = settings: Homo sapiens; SW1573 lung; monotherapy; read-out: mono AC50
# Excerpt: as §1, §2, §3, §4, §5, §6, §7, §8
# NCI-H441 = settings: Homo sapiens; NCI-H441 lung; monotherapy; read-out: mono AC50
# Excerpt: as §1, §2, §3, §4, §5, §6, §7, §8
structure (smiles),measurement,setting,value
"C[C@@H]1COCCN1c1cc(C2([S@](C)(=N)=O)CC2)nc(-c2ccnc3[nH]ccc23)n1 [AZD6738, 4-{4-[(3R)-3-Methylmorpholin-4-yl]-6-[1-((R)—S-methylsulfonimidoyl)cyclopropyl]pyrimidin-2-yl}-1H-pyrrolo[2,3-b]-pyridine]",AC50,NCI-H1666,0.767 µM
same,AC50,NCI-H1299,3.18 µM
same,AC50,DMS53,2.18 µM
same,AC50,HCC1569,0.957 µM
same,AC50,T47D,6.85 µM
same,AC50,MDA-MB-134IV,5.78 µM
same,AC50,PC-9,0.51 µM
same,AC50,NCI-H838,0.274 µM
same,AC50,NCI-H2085,4.75 µM and 5.49 µM
same,AC50,BT-20,0.723 µM
same,AC50,NCI-H2291,1.12 µM
same,AC50,BT474C1,3.83 µM
same,AC50,MDA-MB-157,0.732 µM
same,AC50,A549,3.11 µM
same,AC50,MCF7,1.12 µM
same,AC50,SUM52PE,6.51 µM
same,AC50,HCC1937,0.57 µM
same,AC50,NCI-H1993,2.97 µM
same,AC50,MDA-MB-231,0.866 µM
same,AC50,Calu-1; Calu-1 lung,5.6 µM
same,AC50,"Calu-1; Homo sapiens, Calu-1, Calu-1 lung",3.22 µM
same,AC50,MDA-MB-468,2.31 µM
same,AC50,CAL-120,1.18 µM
same,AC50,HCC1143,0.46 µM
same,AC50,SW1573,3.65 µM
same,AC50,NCI-H441,2.96 µM
